The text below walks through data of publication PMC6792352, “Limited Chemical Structural Diversity Found to Modulate Thyroid Hormone Receptor in the Tox21 Chemical Library” (Environmental Health Perspectives, 2019).

Molecules are shown by their SMILES. Counter-ions that a name gives are not always drawn.

One data set in a line: in vitro. The note with it: rat, gh3-tre-luc cells, AC50 (uM) modified / 1000.
The CC50 is the concentration at which the toxic effect on the cells reaches its halfway point. High values mean lower toxicity to the cells, low ones greater toxicity to the cells. As for `CCCC(C)C` [2-Methylpentane], the cytotoxic concentration (CC50) at 24 h is more than 90 µM.

In turn, `CC(CCC(=O)O)C(=O)O` (centres unmarked) [2-Methylpentanedioic acid] showed a CC50 at 24 h of more than 90 µM. Same read-out and setting: the value for `CCCC(C)C(=O)O` (centres unmarked) [2-Methylpentanoic acid] was more than 90 µM; that for `Cc1ccc2c(ccc3ccccc32)c1` [2-Methylphenanthrene] was more than 90 µM. `Cc1ccccc1CCO` [2-Methylphenethyl alcohol] yielded a half-maximal cytotoxic concentration (CC50) at 24 h of more than 90 µM.

`CC(C)C=O` [2-Methylpropanal] showed a cytotoxic concentration (CC50) at 24 h of more than 90 µM. `CC(CO)CO` [2-Methylpropane-1,3-diol] returned a half-maximal cytotoxic concentration (CC50) at 24 h of more than 100 µM. Still for that read-out and setting: the result for `CC(C)C(=O)O` [2-Methylpropanoic acid] reads more than 90 µM; that for `Cc1cccc[n+]1[O-]` [2-Methylpyridine 1-oxide], more than 90 µM; that for `Cc1ccccn1` [2-Methylpyridine], more than 90 µM. Consider `CC1CCCO1` (centres unmarked) [2-Methyltetrahydrofuran], for which the CC50 at 24 h is more than 90 µM.

In the case of `CCCCCCCCCC(C)C=O` (centres unmarked) [2-Methylundecanal], the CC50 at 24 h was more than 90 µM. Compound `NCCN1CCOCC1` [2-Morpholinoethylamine] returned a cytotoxic concentration (CC50) at 24 h of more than 90 µM.

In the case of `Oc1ccc2ccccc2c1` [2-Naphthalenol], the CC50 at 24 h is more than 90 µM. The same measure, in the same setting: the value for `O=C(O)COc1ccc2ccccc2c1` [2-Naphthoxyacetic acid] was more than 90 µM; that for `O=[N+]([O-])c1ccccc1-c1ccccc1` [2-Nitro-1,1'-biphenyl] was more than 90 µM; that for `N#CSc1ccc(N)c([N+](=O)[O-])c1` [2-Nitro-4-thiocyanoaniline] was 51.1 µM. The compound `CC(=O)c1ccccc1[N+](=O)[O-]` [2-Nitroacetophenone] returned a 50% cytotoxic concentration (CC50) at 24 h of more than 90 µM.

Regarding `Nc1ccccc1[N+](=O)[O-]` [2-Nitroaniline], the cytotoxic concentration (CC50) at 24 h is more than 90 µM.

Consider `O=Cc1ccccc1[N+](=O)[O-]` [2-Nitrobenzaldehyde], for which the half-maximal cytotoxic concentration (CC50) at 24 h is more than 90 µM.

Take `NC(=O)c1ccccc1[N+](=O)[O-]` [2-Nitrobenzamide]: the CC50 at 24 h is more than 90 µM.

As for `O=C(O)c1ccccc1[N+](=O)[O-]` [2-Nitrobenzoic acid], the cytotoxic concentration (CC50) at 24 h is more than 90 µM. With `O=C(Cl)c1ccccc1[N+](=O)[O-]` [2-Nitrobenzoyl chloride], the CC50 at 24 h is more than 90 µM. Compound `O=[N+]([O-])c1ccccc1Nc1ccccc1` [2-Nitrodiphenylamine] came in with a CC50 at 24 h of more than 90 µM. In turn, `O=[N+]([O-])CCO` [2-Nitroethanol] yielded a cytotoxic concentration (CC50) at 24 h of more than 100 µM. `O=[N+]([O-])c1ccc2c(c1)Cc1ccccc1-2` [2-Nitrofluorene]: the CC50 at 24 h is more than 90 µM. Same read-out and setting: the result for `Cc1ccccc1N=O` [2-Nitrosotoluene] reads more than 90 µM.

For `Cc1ccccc1[N+](=O)[O-]` [2-Nitrotoluene], the CC50 at 24 h is more than 90 µM.

In turn, `O=C1OC(=O)C2C3C=CC(C3)C12` (centres unmarked) [2-Norbornene-5,6-dicarboxylic anhydride] yielded a CC50 at 24 h of more than 90 µM. On the same count and under the same terms, the result for `CCCCCCC(C)O` (centres unmarked) [2-Octanol] reads more than 90 µM; that for `CCCCCC=CCC1CC(=O)OC1=O` (centres unmarked) [2-Octen-1-ylsuccinic anhydride], more than 90 µM; that for `C/C=C/C(=O)CCCC` [2-Octen-4-one], more than 90 µM.

`CCCCCCCCCCC(CO)CCCCCCCC` (centres unmarked) [2-Octyl-1-dodecanol] showed a cytotoxic concentration (CC50) at 24 h of more than 90 µM.

Turning to `O=C(O)CC(=O)C(=O)O` [2-Oxobutanedioic acid], the CC50 at 24 h is more than 90 µM.

In turn, `CCCC(=O)C(=O)O` [2-Oxopentanoic acid] yielded a half-maximal cytotoxic concentration (CC50) at 24 h of more than 90 µM. As for `CCCC(C)=O` [2-Pentanone], the 50% cytotoxic concentration (CC50) at 24 h was more than 90 µM. Compound `CC/C=C/C#N` [2-Pentenenitrile] displayed a CC50 at 24 h of more than 90 µM. `CCCCCC1=CCCC1=O` [2-Pentyl-2-cyclopenten-1-one] came in with a cytotoxic concentration (CC50) at 24 h of more than 90 µM.

`CCCCCc1ccco1` [2-Pentylfuran] had a CC50 at 24 h of more than 60 µM.

For the compound `CC(CO)Oc1ccccc1` (centres unmarked) [2-Phenoxy-1-propanol], the CC50 at 24 h was more than 90 µM. `OCCOc1ccccc1` [2-Phenoxyethanol] yielded a CC50 at 24 h of more than 90 µM. For `C=CC(=O)OCCOc1ccccc1` [2-Phenoxyethyl acrylate], the CC50 at 24 h was more than 90 µM. `OC1CCCCC1c1ccccc1` (centres unmarked) [2-Phenylcyclohexanol]: the CC50 at 24 h is more than 90 µM. Same read-out and setting: the result for `OCCc1ccccc1` [2-Phenylethanol] reads more than 50 µM.

Regarding `CCC(C)C(=O)OCCc1ccccc1` (centres unmarked) [2-Phenylethyl 2-methylbutanoate], the half-maximal cytotoxic concentration (CC50) at 24 h was more than 90 µM. For the compound `CC(C)C(=O)OCCc1ccccc1` [2-Phenylethyl 2-methylpropanoate], the CC50 at 24 h is more than 90 µM. Compound `O=C(/C=C/c1ccccc1)OCCc1ccccc1` [2-Phenylethyl 3-phenylprop-2-enoate] displayed a CC50 at 24 h of more than 90 µM. For `CC(=O)OCCc1ccccc1` [2-Phenylethyl acetate], the cytotoxic concentration (CC50) at 24 h was more than 90 µM.

As for `O=C(OCCc1ccccc1)c1ccccc1` [2-Phenylethyl benzoate], the CC50 at 24 h was more than 90 µM. For the compound `CCCC(=O)OCCc1ccccc1` [2-Phenylethyl butanoate], the CC50 at 24 h is more than 90 µM. Same read-out and setting: the value for `CCCCCC(=O)OCCc1ccccc1` [2-Phenylethyl hexanoate] was more than 90 µM; that for `CCC(=O)OCCc1ccccc1` [2-Phenylethyl propionate] was more than 90 µM. In turn, `OCCSc1ccccc1` [2-Phenylmercaptoethanol] displayed a 50% cytotoxic concentration (CC50) at 24 h of more than 90 µM. The compound `CC(CO)c1ccccc1` (centres unmarked) [2-Phenylpropan-1-ol] gave a CC50 at 24 h of more than 90 µM. Still for that read-out and setting: the value for `CC(C)(O)c1ccccc1` [2-Phenylpropan-2-ol] was more than 90 µM; that for `COC(OC)C(C)c1ccccc1` (centres unmarked) [2-Phenylpropionaldehyde dimethyl acetal] was more than 90 µM. In the case of `C=CCS(=O)(=O)O` [2-Propene-1-sulfonic acid, sodium salt], the CC50 at 24 h is more than 90 µM. Take `CCCOCCO` [2-Propoxyethanol]: the CC50 at 24 h was more than 90 µM. Still for that read-out and setting: the value for `CCCCCC(CO)CCC` (centres unmarked) [2-Propyl-1-heptanol] was more than 90 µM; that for `CCCc1ccccc1O` [2-Propylphenol] was more than 90 µM. `N#Cc1ccccn1` [2-Pyridinecarbonitrile] showed a cytotoxic concentration (CC50) at 24 h of more than 100 µM. The compound `O=C1CCCN1` [2-Pyrrolidinone] showed a CC50 at 24 h of more than 90 µM. `c1csc(SSc2cccs2)c1` [2-Thienyl disulfide]: the CC50 at 24 h was more than 90 µM. `O=C(O)c1ccccc1S` [2-Thiosalicylic acid] showed a cytotoxic concentration (CC50) at 24 h of more than 50 µM.

As to `Cc1ccccc1C=O` [2-Tolualdehyde], the half-maximal cytotoxic concentration (CC50) at 24 h was more than 90 µM. On the same count and under the same terms, the result for `Cc1ccccc1C#N` [2-Tolunitrile] reads more than 90 µM; that for `CCCCCCCCCCCC(C)=O` [2-Tridecanone], more than 90 µM.

For `CCCCCCCCCC(C)=O` [2-Undecanone], the cytotoxic concentration (CC50) at 24 h is more than 90 µM.

In the case of `C=Cc1ccccn1` [2-Vinylpyridine], the CC50 at 24 h is more than 90 µM. Consider `CCCCOCCOCCOCCO` [2-[2-(2-Butoxyethoxy)ethoxy]ethanol], for which the CC50 at 24 h was more than 90 µM. On the same count and under the same terms, the result for `CCOCCOCCOCCO` [2-[2-(2-Ethoxyethoxy)ethoxy]ethanol] reads more than 90 µM; that for `COCCOCCOCCO` [2-[2-(2-Methoxyethoxy)ethoxy]ethanol], more than 90 µM. On the same count and under the same terms, the result for `CCCOCCOCCOCCO` [2-[2-(2-Propoxyethoxy)ethoxy]ethanol] reads more than 90 µM; that for `CN(C)CCOCCO` [2-[2-(Dimethylamino)ethoxy]ethanol], more than 90 µM; that for `CCCCCCOCCOCCO` [2-[2-(Hexyloxy)ethoxy]ethanol], more than 90 µM. `CCCCN(CCCC)c1ccc(C(=O)c2ccccc2C(=O)O)c(O)c1` [2-[4-(Dibutylamino)-2-hydroxybenzoyl]benzoic acid] had a cytotoxic concentration (CC50) at 24 h of 46.7 µM. That is a double-digit micromolar value.

The same data set, now with this note: rat, gh3-tre-luc cells, AC50 (uM) modified / 1000, Tox21_110001=Tox21_112821; viability, 1 nM T3 present, 24 h.
Regarding `CCCSc1cc(OC)c(CCN)cc1OC` [2-[2,5-dimethoxy-4-(propylsulfanyl)phenyl]ethanamine hydrochloride], the midpoint of cytotoxicity, the CC50 at 24 h, lay at 34.6 µM.

The data set is the same for the next values; noted with them: rat, gh3-tre-luc cells, AC50 (uM) modified / 1000, Tox21_110001=Tox21_200365; viability, 1 nM T3 present, 24 h.
`CC(C)[N+](=O)[O-]` [2-Nitropropane] yielded a half-maximal cytotoxic concentration (CC50) at 24 h of more than 90 µM.

The data set is the same for the next values; noted with them: rat, gh3-tre-luc cells, AC50 (uM) modified / 1000, Tox21_110001=Tox21_200821; viability, 1 nM T3 present, 24 h.
Compound `O=[N+]([O-])c1ccccc1CCl` [2-Nitrobenzyl chloride] had a CC50 at 24 h of more than 90 µM.

Staying with this data set, now noted: rat, gh3-tre-luc cells, AC50 (uM) modified / 1000, Tox21_110001=Tox21_200839; viability, 1 nM T3 present, 24 h.
In turn, `Cc1ccc2ccccc2c1` [2-Methylnaphthalene] displayed a half-maximal cytotoxic concentration (CC50) at 24 h of more than 90 µM.

Staying with this data set, now noted: rat, gh3-tre-luc cells, AC50 (uM) modified / 1000, Tox21_110001=Tox21_201442; viability, 1 nM T3 present, 24 h.
The compound `O=[N+]([O-])c1ccccc1O` [2-Nitrophenol] yielded a CC50 at 24 h of more than 90 µM.

Still in this data set, the particulars now being: rat, gh3-tre-luc cells, AC50 (uM) modified / 1000, Tox21_110001=Tox21_201788; viability, 1 nM T3 present, 24 h.
`CC(C#N)CCC#N` (centres unmarked) [2-Methylpentanedinitrile]: the CC50 at 24 h was more than 90 µM.

Still in this data set, the particulars now being: rat, gh3-tre-luc cells, AC50 (uM) modified / 1000, Tox21_110001=Tox21_201929; viability, 1 nM T3 present, 24 h.
The compound `CC(C)C#N` [2-Methylpropanenitrile] had a CC50 at 24 h of more than 90 µM.

The same data set, now with this note: rat, gh3-tre-luc cells, AC50 (uM) modified / 1000, Tox21_110001=Tox21_202091; viability, 1 nM T3 present, 24 h.
In turn, `Nc1ccc2ccccc2c1` [2-Naphthylamine] showed a 50% cytotoxic concentration (CC50) at 24 h of more than 90 µM.

Still in this data set, the particulars now being: rat, gh3-tre-luc cells, AC50 (uM) modified / 1000, Tox21_110001=Tox21_202415; viability, 1 nM T3 present, 24 h.
`Oc1ccccc1-c1ccccc1` [2-Phenylphenol] yielded a CC50 at 24 h of more than 90 µM.

The data set is the same for the next values; noted with them: rat, gh3-tre-luc cells, AC50 (uM) modified / 1000, Tox21_110001=Tox21_300689; viability, 1 nM T3 present, 24 h.
On to `O=C(Cc1ccccc1)OCCc1ccccc1` [2-Phenylethyl phenylacetate], for which the cytotoxic concentration (CC50) at 24 h is more than 90 µM.
